“Also recorded” adds a separate entry of the source.
Columns and labels:
[1] = biological target: T1, Flavobacterium heparinum 6-O-sulfatase (ORF B), recombinant, NH2-terminal truncation lacking signal sequence, SEQ ID NO: 2 (Pedobacter heparinus, UniProt C6Y1N4); experiment: Inhibition of 6-O-sulfatase activity (sulfate, phosphate, chelators); format: biochemical
T1 construct: E. coli BL21(DE3), N-terminal 6xHis removed by thrombin
Protocol: Results are normalized to 0.0 M NaCl added (which is shown as 100%). 6-O-sulfatase (●); N-sulfamidase (◯). […] Results for 6-O-sulfatase are represented by a solid line; results for N-sulfamidase are represented by a dashed line. […] Log scale for inhibitor concentration, [I]. […] Relative activities (% desulfation) were measured over a pH range of 4-8 using three buffers: sodium acetate (●), MES (◯) and MOPS (▴).
Open bars (no divalent metals added); black bars (1 mM EDTA added); light gray bars (1 mM divalent metal); stippled gray bars (5 mM divalent metal). […] Enzyme kinetics were measured for the 6-O-sulfatase (FIG. 8C) and N-sulfamidase (FIG. 8D) as described in Materials and Methods at varying concentrations of Ca^+2 or in the presence of 1 mM EDTA. Substrate saturation plots were fitted to pseudo first-order Michaelis-Menten kinetics by non-linear regression analyses. 0.5 mM Ca^+2 (●), 1 mM Ca^+2 (◯), 5 mM Ca^+2 (▪), 1 mM EDTA (Δ).
Indirect measurement of enzyme activity was also made using a fluorimetrically-based plate assay in which the prerequisite desulfation of the appropriate glucopyranoside 1→4 methlybelliferone substrate by either the 6-O-sulfatase or N-sulfamidase was coupled to the glucosidase-mediated hydrolysis of the stereo-specific 1→4 glycosidic linkage between the pyranose ring and the adjoining fluorophore. Release of the free fluorophore (4-MU) was monitored spectroscopically as described above for the arylsulfatase assay using 4-MU sulfate. The two sulfatase assays differed in the choice of substrate in accordance to their specificity as well as the glucosidase added during the second, rate-limiting step. […] Reaction conditions were optimized to satisfy three related criteria: 1) linear readout of fluorescent signal which is directly proportional to sulfatase activity; 2) quantitative release of 4-MU by glucosidase activity under every biochemical condition examined and; 3) negligible fluorescent quenching of the free chromophore. […]

[2] = biological target: T2, Flavobacterium heparinum N-sulfamidase (ORF C), recombinant, NH2-terminal truncation lacking signal sequence, SEQ ID NO: 4 (Pedobacter heparinus, UniProt C6Y1N3); experiment: Inhibition of N-sulfamidase activity (sulfate, phosphate, chelators); format: biochemical
T2 construct: E. coli BL21(DE3), N-terminal 6xHis removed by thrombin
T2 sequence (C6Y1N3 entry or part of it): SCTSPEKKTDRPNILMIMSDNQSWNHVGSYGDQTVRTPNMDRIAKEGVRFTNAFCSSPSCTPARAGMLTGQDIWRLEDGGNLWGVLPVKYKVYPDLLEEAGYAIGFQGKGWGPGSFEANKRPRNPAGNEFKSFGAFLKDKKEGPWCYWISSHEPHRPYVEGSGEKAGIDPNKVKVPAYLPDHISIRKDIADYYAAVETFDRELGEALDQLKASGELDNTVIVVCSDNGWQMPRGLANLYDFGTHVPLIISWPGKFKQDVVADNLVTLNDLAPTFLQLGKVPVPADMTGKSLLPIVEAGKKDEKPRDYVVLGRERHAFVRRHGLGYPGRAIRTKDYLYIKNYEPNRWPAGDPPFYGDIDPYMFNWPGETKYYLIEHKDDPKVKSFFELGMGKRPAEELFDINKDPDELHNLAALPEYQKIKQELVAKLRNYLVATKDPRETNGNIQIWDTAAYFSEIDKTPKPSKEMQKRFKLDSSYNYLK
Protocol: Results are normalized to 0.0 M NaCl added (which is shown as 100%). […] Relative activities (% desulfation) were measured over a pH range of 4-8 using three buffers: sodium acetate (●), MES (◯) and MOPS (▴).
Enzyme kinetics were measured for the 6-O-sulfatase (FIG. 8C) and N-sulfamidase (FIG. 8D) as described in Materials and Methods at varying concentrations of Ca^+2 or in the presence of 1 mM EDTA. Substrate saturation plots were fitted to pseudo first-order Michaelis-Menten kinetics by non-linear regression analyses.
Indirect measurement of enzyme activity was also made using a fluorimetrically-based plate assay in which the prerequisite desulfation of the appropriate glucopyranoside 1→4 methlybelliferone substrate by either the 6-O-sulfatase or N-sulfamidase was coupled to the glucosidase-mediated hydrolysis of the stereo-specific 1→4 glycosidic linkage between the pyranose ring and the adjoining fluorophore. Release of the free fluorophore (4-MU) was monitored spectroscopically as described above for the arylsulfatase assay using 4-MU sulfate. The two sulfatase assays differed in the choice of substrate in accordance to their specificity as well as the glucosidase added during the second, rate-limiting step. For the 6-O-sulfatase, the hydrolysis of the substrate 4-MU-β-D-GlcNAc,6S at the 6-OH position was coupled to β-glucosidase purified from sweet almonds (MP Biomedicals, Solon, Ohio, Catalog No. 195197). Likewise, N-sulfamidase hydrolysis of 4-MU-α-D-GlcNS at the 2-amino position was coupled to α-glucosidase (MP Biomedicals, Catalog No. 153487). […] The presumption of the first (sulfatase) activity being the rate-limiting step was established experimentally. Reaction conditions were optimized to satisfy three related criteria: 1) linear readout of fluorescent signal which is directly proportional to sulfatase activity; 2) quantitative release of 4-MU by glucosidase activity under every biochemical condition examined and; 3) negligible fluorescent quenching of the free chromophore.
Coupled N-sulfamidase assay was generally described for the 6-O-sulfatase, but with the following modifications: 4-MU-GlcNS as substrate, 50 mM sodium acetate at pH 6.0 (instead of 5.5) and 1 μM enzyme. For the second enzyme step, 5 units of α-glucosidase were added. Enzyme incubation was carried out for 22 hours at 37° C. […] All other reaction conditions were as described for the coupled 6-O-sulfatase/β-glucosidase assay.
Having identified chromogenic substrates for each recombinant sulfatase, these substrates were also used to further develop a fluorescence-based plate assay as the means to define the optimal in vitro reaction conditions for each sulfatase.

T1 sequence (C6Y1N4 entry or part of it): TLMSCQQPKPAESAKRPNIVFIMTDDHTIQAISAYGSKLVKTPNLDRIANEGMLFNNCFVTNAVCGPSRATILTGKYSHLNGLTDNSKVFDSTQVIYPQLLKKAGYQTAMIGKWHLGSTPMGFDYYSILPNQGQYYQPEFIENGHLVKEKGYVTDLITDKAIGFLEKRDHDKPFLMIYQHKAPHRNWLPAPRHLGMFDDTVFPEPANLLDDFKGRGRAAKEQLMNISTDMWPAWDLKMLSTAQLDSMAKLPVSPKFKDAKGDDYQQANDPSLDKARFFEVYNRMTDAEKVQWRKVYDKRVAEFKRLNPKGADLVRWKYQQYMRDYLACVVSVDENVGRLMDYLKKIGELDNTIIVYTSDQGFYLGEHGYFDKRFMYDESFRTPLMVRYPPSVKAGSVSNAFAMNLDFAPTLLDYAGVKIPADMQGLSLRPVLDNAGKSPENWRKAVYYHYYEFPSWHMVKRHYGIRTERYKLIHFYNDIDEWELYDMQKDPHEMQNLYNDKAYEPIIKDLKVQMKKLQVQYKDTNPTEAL

## O=S(=O)(O)O [sulfate]
[1]; normalized to 0 sulfate or phosphate added, read-out: concentration for 50% inhibition of 6-O-sulfatase activity
  IC50: ~20 mM
[2]
  inhibition of N-sulfamidase by sulfate or phosphate: largely uninhibited; also recorded: not apparently inhibited

## O=C(O)CN(CCOCCOCCN(CC(=O)O)CC(=O)O)CC(=O)O [EGTA]
[1]; EGTA, same conditions as N-sulfamidase (5 mM Ca^2+)
  effect on 6-O-sulfatase specific activity: no appreciable effect

## O=C(O)CN(CCN(CC(=O)O)CC(=O)O)CC(=O)O [EDTA, ethylenediaminetetracetic acid]
[1]; 1 mM EDTA
  6-O-sulfatase activity in the presence of EDTA: somewhat active
[2]; 1 mM EDTA
  N-sulfamidase activity in the presence of EDTA: lack of activity

## phosphate
[2]
  inhibition of N-sulfamidase by sulfate or phosphate: largely uninhibited; also recorded: not apparently inhibited
